Laboratory results from patent US9963433B2, “Anticancer drugs including the chemical structures of an androgen receptor ligand and a histone deacetylase inhibitor” (Wayne State University, priority 2016, dated 2018).

Key:
[1] = tested on: AR chromatin association at KLK3 ARE enhancer elements; assay: ChIP of AR at KLK3 enhancer in C4-2 cells; details: compound 10 μM, R1881 1 nM or 10 nM, 2 h, FIG. 3C
Description: (3C) C4-2 cells plated in hormone-depleted medium were treated with either vehicle, R1881, or the indicated compound for 2 h. Cells were harvested and subjected to ChIP using AR antibody. Taqman probes targeting ARE enhancer elements associated with the KLK3 gene were used to quantify the immunoprecipitated chromatin.
Chromatin Immunoprecipitation (ChIP). […] The ChIP signals were measured by quantitative real time PCR analysis of the immunoprecipitated products.
As a target site for the ChIP assay, the well-established AR binding enhancer elements located 4 kb upstream of the transcription initiation site of the KLK3 gene was chosen.

[2] = tested on: KLK3 mRNA (AR target gene) in C4-2 cells; assay: Inhibition of R1881 activation of KLK3 mRNA in C4-2 cells; format: cell-based; details: hormone depleted 96 h, R1881 1 nM, compound 1-10 μM, 48 h, FIG. 3A
Description: (§1) Cell Culture and Reagents. LNCaP and 22Rv1 cell lines were from American Type Culture Collection (Manassas, Va.). C4-2 cells were kindly provided by Dr. Edwin Sanchez (University of Toledo). […] R1881 was kindly provided by Dr. Stephan Patrick (Karmanos Cancer Institute). All experiments were conducted using phenol-red free growth media.
(§2) RNA isolation, Reverse Transcription, and Real Time PCR. Total RNA was isolated from cells using the RNeasy Mini Kit (Qiagen). Reverse transcription PCR was then performed using 500 ng of total RNA with random primers and using the high-capacity complementary DNA Archive kit (Applied Biosystems). The complementary DNA from this reaction was measured using quantitative real time PCR using the StepONE Plus Real Time PCR system (Life Technologies Corporation, Carlsbad, Calif.). All reactions were performed in triplicate and normalized to glyceraldehyde-3-phosphate-dehydrogenase values in the same samples.

human recombinant HDAC6 = molecular target: T1, human recombinant HDAC6 (Homo sapiens, UniProt Q9UBN7); assay: HDAC6 fluorometric assay, recombinant enzyme; format: biochemical; details: tested at 10 μM and 25 μM; FIG. 2D
T1 construct: purchased Enzo Life Sciences BML-AK516
T1 sequence (Q9UBN7 1-1215): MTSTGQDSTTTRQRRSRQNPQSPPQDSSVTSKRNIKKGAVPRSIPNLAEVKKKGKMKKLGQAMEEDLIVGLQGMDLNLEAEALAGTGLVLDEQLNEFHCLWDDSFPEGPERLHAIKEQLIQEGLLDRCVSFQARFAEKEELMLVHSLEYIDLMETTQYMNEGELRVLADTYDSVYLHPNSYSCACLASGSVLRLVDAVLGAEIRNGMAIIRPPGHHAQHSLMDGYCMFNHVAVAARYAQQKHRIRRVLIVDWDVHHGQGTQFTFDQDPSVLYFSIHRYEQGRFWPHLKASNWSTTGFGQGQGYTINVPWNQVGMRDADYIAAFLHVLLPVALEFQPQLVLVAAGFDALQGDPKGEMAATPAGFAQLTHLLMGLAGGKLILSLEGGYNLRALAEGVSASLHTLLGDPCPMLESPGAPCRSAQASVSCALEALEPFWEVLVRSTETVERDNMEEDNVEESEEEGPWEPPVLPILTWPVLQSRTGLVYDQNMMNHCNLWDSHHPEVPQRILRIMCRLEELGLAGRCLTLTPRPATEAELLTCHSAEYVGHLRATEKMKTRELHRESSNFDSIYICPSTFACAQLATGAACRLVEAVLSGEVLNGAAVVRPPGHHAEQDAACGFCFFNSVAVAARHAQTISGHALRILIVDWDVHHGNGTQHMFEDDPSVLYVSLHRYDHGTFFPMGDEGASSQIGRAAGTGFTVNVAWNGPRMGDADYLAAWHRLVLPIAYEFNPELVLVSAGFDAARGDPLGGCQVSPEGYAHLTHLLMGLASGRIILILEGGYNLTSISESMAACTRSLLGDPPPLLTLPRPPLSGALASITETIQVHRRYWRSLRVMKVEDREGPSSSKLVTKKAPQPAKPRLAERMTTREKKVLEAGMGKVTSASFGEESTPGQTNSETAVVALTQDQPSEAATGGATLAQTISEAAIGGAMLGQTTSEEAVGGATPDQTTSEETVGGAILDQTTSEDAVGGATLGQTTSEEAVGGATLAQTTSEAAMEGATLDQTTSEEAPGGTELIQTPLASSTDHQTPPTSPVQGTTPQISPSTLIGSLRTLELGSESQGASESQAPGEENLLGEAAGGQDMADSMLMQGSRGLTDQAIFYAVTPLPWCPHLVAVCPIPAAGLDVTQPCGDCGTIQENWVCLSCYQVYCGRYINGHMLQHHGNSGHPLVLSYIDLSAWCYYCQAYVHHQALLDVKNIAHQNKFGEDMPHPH
Description: (§3) FIGS. 2A-2F show measurement of intrinsic and in situ HDACi activities. […] IC50 values were calculated from nonlinear regression plots using GraphPad Prism5 software. […] Recombinant HDAC6 was incubated with each drug at the indicated concentrations. IC50 values were calculated from nonlinear regression plots using GraphPad Prism5 software.
(§4) HDAC activity assay. In vitro HDAC inhibition was measured by using the HDAC fluorimetric assay/drug discovery Kit (Enzo Life Sciences, BML-AK500) and the HDAC6 fluorometric drug discovery kit (Enzo Life Sciences, BML-AK516) following the manufacturer's protocols and instructions. IC50 values were calculated from nonlinear […] plots using GraphPad Prism5 software.
(§5) HDAC1 and HDAC2 are enriched in nuclear extracts whereas HDAC6 is a cytosolic enzyme that is the principal modulator of the acetylation status of Hsp90. […] Again, TSA served as the positive control in FIG. 2D.

[3] = tested on: HDACs from Hela cell nuclear extract; format: biochemical; details: HeLa cell nuclear extract; tested at 10 μM and 25 μM; FIG. 2B
Description: as §3, §4, §5

[4] = tested on: TMPRSS2 mRNA (AR target gene) in C4-2 cells; assay: Inhibition of R1881 activation of TMPRSS2 mRNA in C4-2 cells; format: cell-based; details: hormone depleted 96 h, R1881 1 nM, compound 1-10 μM, 48 h, FIG. 3B
Description: as §1, §2

Hsp90 = assay: Western blot of Hsp90 protein in C4-2 cells; details: 1 μM to 10 μM, 24 h, relative to GAPDH, FIG. 4B
Description: (§8) Cells were then harvested for western blot analysis using antibody to AR (4A), HSP90 (4B), Acetyl-Lysine (4C) or GAPDH (loading control). ImageJ software was used to determine the intensities of the bands relative to the vehicle control for each protein. The values were then divided by the values for GAPDH within the same samples.
(§9) Western Blot Analysis. Cells were washed once with phosphate buffered saline (PBS) and then lysed with RIPA buffer (150 mM NaCl, 1% Nonidet P-40, 0.5% sodium deoxycholate, 0.1% SDS, 50 mM Tris of pH 8.0) containing a protease inhibitor cocktail (Pierce, Thermo Fisher Scientific). The cell lysates were then incubated on ice for 40 minutes. Total protein concentrations were estimated using the Bradford Assay (Bio-Rad). Protein samples (10-40 ug) were heated at 95° C. for 5 minutes and resolved by electrophoresis on 8% polyacrylamide-SDS gels and electrophoretically transferred to PVDF membranes (Millipore, Billerica, Mass.). The membranes were then probed overnight at 4° C. with the appropriate primary antibody followed by the appropriate horseradish peroxidase-conjugated secondary antibody.

DLC1 mRNA in LNCaP cells = assay: In situ HDACi activity: DLC1 mRNA in LNCaP cells; format: cell-based; details: 10 μM, 48 h, normalized to GAPDH mRNA, FIG. 2E
Description: (§6) FIGS. 2A-2F show measurement of intrinsic and in situ HDACi activities. […]. IC50 values were calculated from nonlinear regression plots using GraphPad Prism5 software. (2B) Enz, 1002 and 3-52 were tested against HeLa cell nuclear extract at 10 μM and 25 μM and TSA (1 μM) was used as positive control. […] Recombinant HDAC6 was incubated with each drug at the indicated concentrations. IC50 values were calculated from nonlinear regression plots using GraphPad Prism5 software. (2D) Enz, 1002 and 3-52 were tested against recombinant HDAC6 at 10 μM and 25 μM and TSA (1 μM) was used as positive control. […]
(§7) Cell Culture and Reagents. LNCaP and 22Rv1 cell lines were from American Type Culture Collection (Manassas, Va.). C4-2 cells were kindly provided by Dr. Edwin Sanchez (University of Toledo). LNCaP and C4-2 cells were routinely grown at 37° C. in 5% CO2 in RPMI 1640 medium supplemented with 10% FBS (Invitrogen); 100 units/ml penicillin, 100 μg/ml streptomycin, 2 mM L-glutamine mixture (Invitrogen); and sodium pyruvate (1 mM) (Invitrogen). 22Rv1 cells were grown in RPMI 1640 medium supplemented with 10% FBS (Invitrogen); 100 units/ml penicillin, 100 μg/ml streptomycin, 2 mM L-glutamine mixture (Invitrogen). Affinity-purified rabbit anti-human antibody to AR (sc-816) and mouse anti-human antibody to GAPDH (sc-47724) were purchased from Santa Cruz Biotechnology (Santa Cruz, Calif.). Affinity-purified rabbit anti-human antibody to Hsp90 (C45G5) #4877 and rabbit anti-human antibody to acetylated lysine #9441 were purchased from Cell Signaling Technology. R1881 was kindly provided by Dr. Stephan Patrick (Karmanos Cancer Institute). All experiments were conducted using phenol-red free growth media. For hormone depletion, cells were grown in phenol-red free RPMI 1640 medium supplemented with 10% charcoal stripped FBS (Sigma-Aldrich) which was heat inactivated at 56° C. for thirty minutes, and a mixture of 100 units/ml penicillin, 100 μg/ml streptomycin and 2 mM L-glutamine for 96 h.
as §2, with “samples. All primers and Taqman probes were purchased from the applied Biosystems inventory (Invitrogen) (Patki et al., 2015).” for “samples.”
. […]

[5] = tested on: 55 KDa polypeptide (putative Hsp90 fragment); assay: Western blot of acetylated lysine in C4-2 cells; details: 24 h, acetylated lysine antibody, FIG. 4C
Description: as §8, §9

p21 mRNA in C4-2 cells = assay: p21 mRNA induction in C4-2 cells; details: 48 h, FIG. 5B
DLC1 mRNA in C4-2 cells = assay: In situ HDACi activity: DLC1 mRNA in C4-2 cells; format: cell-based; details: 48 h, normalized to GAPDH mRNA, FIG. 2F
Description: as §6, §7
as §2, with “samples. All primers and Taqman probes were purchased from the applied Biosystems inventory (Invitrogen) (Patki et al., 2015).” for “samples.”
. […]

p21 mRNA in LNCaP cells = assay: p21 mRNA induction in LNCaP cells; details: 10 μM, 48 h, FIG. 5A
C4-2 cells = assay: MTT cell viability assay, C4-2 cells; format: cell-based; details: C4-2 cells; 5 μM; MTT Day 3 relative to Day 0; FIG. 6C
Description: (6A) C4-2 cells were seeded in 96-well plates and 24 h later, they were treated with the indicated compounds (0.1 μM-10 μM) or with vehicle (DMSO). Cell viability was measured by the MTT assay on Days 0 and 3 of treatment. EC50 values were calculated from nonlinear regression plots using GraphPad Prism5 software. […] Cell viability was measured by the MTT assay on Days 0 and 3 of treatment. […] Cell viability was measured by the MTT assay on Days 0 and 3 of treatment. […] (6D) 22Rv1 cells were infected with AR shRNA lentivirus, or control shRNA. 72 h after infection, cells were plated and viable cells were measured by the MTT assay on the indicated days (6D, bottom). Cells were also harvested for western blot analysis and probed with antibody to AR, which was also reactive with the AR splice variant AR-V7 (6D, top). (6E) 22Rv1 cells were seeded in 96-well plates and 24 h later, they were treated with the indicated compounds (0.1 μM-10 μM) or with vehicle (DMSO). Cell viability was measured by the MTT assay on Days 0 and 3 of treatment. EC50 values were calculated from nonlinear regression plots using GraphPad Prism5 software.
Cell Proliferation Assay. Cells were trypsinized and 6000 cells/well were seeded in 96-well plates coated with poly-D-lysine. The cells were seeded in phenol red-free medium supplemented with 10% FBS, 100 units/ml penicillin, 100 μg/ml streptomycin, 2 mM L-glutamine mixture and sodium pyruvate (1 mM) for C4-2 cells and phenol red-free medium supplemented with 10% FBS, 100 units/ml penicillin, 100 μg/ml streptomycin and 2 mM L-glutamine mixture for 22Rv1 cells. The cells were grown at 37° C. in 5% CO2. Twenty four hours after seeding in the 96-well plates, the cells were treated with indicated compound or DMSO (vehicle). The culture medium was not changed during the time course of the assay. On Day zero and on Day 3, cell viability was determined using the MTT assay. MTT (10 μL, 5 mg/mL) was added to each well and incubated for 2 h at 37° C. The formazan crystal sediments were dissolved in 100 μL of DMSO, and the absorbance at 570 nm was measured using the BioTek Synergy 2 Microplate Reader (BioTek, Winooski, Vt.). […] IC50 values were calculated from nonlinear […] plots using GraphPad Prism5 software.

| SMILES | chromatin association of AR (ChIP signal) [1] | inhibition of activation of KLK3 by R1881 [2] | inhibitory activity against HDAC6 (human recombinant HDAC6) | inhibition of nuclear HDAC activity [3] | inhibition of activation of TMPRSS2 by R1881 [4] | Hsp90 protein level (degradation) (Hsp90) | DLC1 mRNA expression (DLC1 mRNA in LNCaP cells) | hyper-acetylation of a 55 KDa polypeptide [5] | p21 mRNA expression (p21 mRNA in C4-2 cells) | DLC1 mRNA expression (DLC1 mRNA in C4-2 cells) | p21 mRNA expression (p21 mRNA in LNCaP cells) | cell death (viable cells below the number on Day 0) (C4-2 cells) |
| --- | --- | --- | --- | --- | --- | --- | --- | --- | --- | --- | --- | --- |
| C[C@]1(O)CC[C@H]2[C@@H]3CCC4=CC(=O)CCC4=C3C=C[C@@]21C [androgen, R1881] | strongly stimulated chromatin association of AR | – | – | – | – | – | – | – | – | – | – | – |
| COC(=O)CCCCCCNC(=O)c1ccc(N2C(=S)N(c3ccc(C#N)c(C(F)(F)F)c3)C(=O)C2(C)C)cc1F [Compound 3-52, Methyl-7-(4-(3-(4-cyano-3-(trifluoromethyl)phenyl)-5,5-dimethyl-4-oxo-2-thioxoimidazolidin-1-yl)-2-fluorobenzamido)heptanoate] | – | comparable to Enz | did not show significant inhibitory activity | did not inhibit nuclear HDAC activity even up to a concentration of 25 μM | comparable to Enz | – | – | – | – | – | – | – |
| O=C(CCCCCCC(=O)Nc1ccccc1)NO [SAHA, suberanilohydroxamic acid, reference compound] | basal ChIP signal | – | – | – | – | a decrease in Hsp90 was evident at the higher doses | strongly up-regulated | hyper-acetylation of a 55 KDa polypeptide | induced p21 mRNA | strongly up-regulated | induced p21 mRNA | caused cell death |
